Assay results reported in PubChem BioAssay (NCI).
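48-hour exposure; five concentrations; linearly interpolated endpoints. GI50 = concentration required for 50% inhibition of growth. TGI marks complete inhibition of growth.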

Tests used:
Experiment in all cases: growth of human tumour cells (NCI), 48 h
MALME-3M melanoma = tested on: MALME-3M melanoma
ACHN renal = tested on: ACHN renal
SK-MEL-28 melanoma = tested on: SK-MEL-28 melanoma
MCF7 breast = tested on: MCF7 breast
HOP-62 NSCLC = tested on: HOP-62 NSCLC
SK-OV-3 ovarian = tested on: SK-OV-3 ovarian
UACC-62 melanoma = tested on: UACC-62 melanoma
CCRF-CEM leukemia = tested on: CCRF-CEM leukemia
SN12C renal = tested on: SN12C renal
HT29 colon = tested on: HT29 colon

Row | SMILES | GI50 (MALME-3M melanoma) [µM] | TGI (MALME-3M melanoma) [µM] | GI50 (ACHN renal) [µM] | TGI (ACHN renal) [µM] | GI50 (SK-MEL-28 melanoma) [µM] | TGI (SK-MEL-28 melanoma) [µM] | GI50 (MCF7 breast) [µM] | TGI (MCF7 breast) [µM] | GI50 (HOP-62 NSCLC) [µM] | TGI (HOP-62 NSCLC) [µM] | GI50 (SK-OV-3 ovarian) [µM] | TGI (SK-OV-3 ovarian) [µM] | GI50 (UACC-62 melanoma) [µM] | TGI (UACC-62 melanoma) [µM] | GI50 (CCRF-CEM leukemia) [µM] | TGI (CCRF-CEM leukemia) [µM] | GI50 (SN12C renal) [µM] | TGI (SN12C renal) [µM] | GI50 (HT29 colon) [µM] | TGI (HT29 colon) [µM]
1 | CC(=O)/C(C)=N/N/C(N)=N\S(=O)(=O)c1cc(C(=O)Nc2ccccc2)c(Cl)cc1SCc1ccccc1 | > 100 | > 100 | 7.89 | > 100 | > 100 | > 100 | 76.7 | > 100 | 0.0554 | 0.385 | > 100 | > 100 | 16.4 | > 100 | 98.5 | > 100 | 28.2 | > 100 | 61.6 | > 100
2 | Cn1c(O)c(C(=O)Nc2ccc([N+](=O)[O-])cc2)c(=O)n(C)c1=S | – | 5.03 | – | > 27.3 | – | 3.68 | – | > 100 | – | 4.05 | – | > 81.1 | – | 3.64 | – | > 100 | – | > 70.7 | – | 8.33
3 | C=C1C(C)C2C(Cc3ccccc3)NC(=O)C23C(OC(C)=O)/C=C/C(C)(O)CC(C)C/C=C/C3C1O (stereo not given) | – | > 94.4 | – | > 100 | – | > 97.7 | – | > 94.5 | – | 3.08 | – | 46.6 | – | > 91.8 | – | 85 | – | > 100 | – | > 100
4 | COc1ccc(/C=C(\C#N)c2cc3ccccc3n2C)cc1 | 0.475 | > 100 | 0.654 | > 100 | 4.52 | > 100 | 0.343 | > 100 | 0.497 | > 100 | 0.787 | > 100 | 0.504 | > 100 | 0.338 | > 100 | 0.58 | > 100 | 0.347 | > 34.1
5 | O=C(/C=C/c1ccco1)Nc1ncc(Cc2ccc(F)cc2)s1 | 0.249 | > 100 | 0.0749 | > 100 | 3.5 | > 100 | 0.0612 | > 100 | 0.145 | > 100 | 0.0455 | > 100 | 0.0555 | > 100 | 0.0614 | > 100 | 0.189 | > 100 | 0.0366 | > 100
6 | COc1ccc([C@H]2O[C@@H](CO)C[C@]2(O)c2ccc(OC)cc2)cc1 | > 100 | > 100 | > 100 | > 100 | > 100 | > 100 | > 100 | > 100 | > 100 | > 100 | > 100 | > 100 | > 100 | > 100 | > 100 | > 100 | > 100 | > 100 | > 100 | > 100
7 | CC1(C)OCN(c2ccc(Cl)cc2)Cn2c1nc1ccccc12 | – | > 100 | – | > 100 | – | > 100 | – | > 100 | – | > 100 | – | > 100 | – | 5.58 | – | > 100 | – | > 100 | – | > 100
